Values joined by “and” are separate entries in the source; they are usually repeats but may differ in a detail not shown here. Identical values can stand only once.
Legend:
[1] = Transition of paclitaxel concentrations in the rat plasma; assay type: in vivo; conditions: intravenous, 5 mg/kg paclitaxel equivalent, tail vein, male SD rats
Description: Micellar preparation 10 from Example 9 was diluted with normal saline solution to make an aqueous solution having a concentration of 2.5 mg/mL in terms of paclitaxel. Paclitaxel alone was dissolved in ethanol, to which Cremophor (Sigma) was then added in the same amount as ethanol to prepare in such a way that the concentration of paclitaxel was adjusted to 25 mg/mL, followed by dilution to 2.5 mg/mL with normal saline solution immediately before administration. Micellar preparation 10 or paclitaxel alone was administered in an amount equivalent to paclitaxel 5 mg/kg to male SD rats through their tail veins, followed by taking blood samples from their cervical veins with time. The plasma obtained by centrifugation was diluted with an appropriate amount of water and subjected to three rounds of extraction with t-butyl methyl ether. The ether layer was recovered, dried up, and then dissolved in 50 μL of actonitrile, followed by quantitating paclitaxel using HPLC.

[2] = tested on: female CDF1 mice; experiment: Toxicity test against mouse extension reflex (peripheral nerve impairment); assay type: in vivo; conditions: 30 mg/kg in terms of paclitaxel, tail vein, 5 consecutive days, hind limbs
Description: Micellar preparation 10 or paclitaxel alone was administered to female CDF1 mice through their tail veins for consecutive 5 days to observe the extension reflex of their hind limbs providing an indication of peripheral nerve impairment due to paclitaxel. Each agent was prepared as described in Test Example 1, and used directly, or after dilution with saline before use. The dosages used were expressed in terms of paclitaxel.

[3] = tested on: mouse colon cancer Colon 26 cells; experiment: In vivo antitumor effect against Colon 26; conditions: average tumor volume treated/untreated, 11 days after treatment, 30 mg/kg in terms of paclitaxel, tail vein, 5 consecutive days, female CDF1 mice
Description: Female CDF1 mice were inoculated subcutaneously at the back thereof with the mouse colon cancer Colon 26 cells, and, from the point of time when the volume of tumor has reached around 100 mm^3, micellar preparation 10 according to the invention, the micellar composition from Comparative Example, or paclitaxel was administered through the tail veins of the mice for consecutive 5 days to examine effects against advanced cancer. Each agent was used directly, or after dilution with saline before use. The concentration of each agent was expressed in terms of paclitaxel. The antitumor effect of agent was judged on the basis of a percentage of the average tumor volume in treated group to the average tumor volume in untreated group (T/C %) 11 days after agent treatment.

Q: For CC(=O)O[C@H]1C(=O)[C@@]2(C)[C@H]([C@H](OC(=O)c3ccccc3)[C@]3(O)C[C@H](OC(=O)[C@H](O)[C@@H](NC(=O)c4ccccc4)c4ccccc4)C(C)=C1C3(C)C)[C@]1(OC(C)=O)CO[C@@H]1C[C@@H]2O [Paclitaxel, paclitaxel], which AUC(0-t) ([1]; read-out: AUC (0-360) (converted)) is on record?
A: 1170 ng·h/mL

Q: And the concentration at 10 min ([1]; blood drawing time 10 min)?
A: 1050 ng/mL

Q: What about the concentration at 30 min ([1]; blood drawing time 30 min) of the same compound?
A: 510 ng/mL

Q: What about the concentration at 60 min ([1]; blood drawing time 60 min) of the same compound?
A: 260 ng/mL

Q: And the concentration at 120 min ([1]; blood drawing time 120 min)?
A: 100 ng/mL

Q: What about the concentration at 360 min ([1]; blood drawing time 360 min) of the same compound?
A: 35 ng/mL

Q: And the “Mice showing extension reflex disappearance” value [2]?
A: 3/3

Q: And the “Mice showing extension reflex disappearance” value ([2]; listed as paclitaxel alone)?
A: induced the disappearance of extension reflex in all mice

Q: What about the “T/C (%)” value [3] of the same compound?
A: 40.0% and 37.5%

Q: What about the “T/C (%)” value ([3]; listed as paclitaxel alone) of the same compound?
A: 37.5% and 40.0%
